Reference: PMC3781849 (Journal of Clinical Pharmacology, 2013)
Where “and” joins values, the source holds several entries; their conditions need not be identical. Equal values may be shown once. Entries after “also recorded” stand apart in the source; their conditions may differ. Read-outs that look alike come from different tables or passages of the source.

What was measured:
[1] = dasatinib + ketoconazole 200 mg twice daily; cited from earlier work
[2] = bosutinib + ketoconazole 400 mg once daily; cited from earlier work
[3] = nilotinib + ketoconazole 400 mg once daily; cited from earlier work
[4] = earlier studies; cited from earlier work
[5] = cited from earlier work
[6] = for Cmax: geometric mean (%CV, n)
[7] = single 45-mg oral dose of 14C-labeled ponatinib, healthy volunteers; cited from earlier work
[8] = monkeys; preclinical studies; cited from earlier work
[9] = Safety and tolerability in the ponatinib ± ketoconazole crossover study
[10] = rats; preclinical studies; cited from earlier work
[11] = system: cells expressing all BCR-ABL mutants tested, including the T315I gatekeeper mutant; details: preclinical; includes T315I; cited from earlier work
[12] = ponatinib + ketoconazole vs ponatinib alone
[13] = ponatinib + ketoconazole vs ponatinib alone, from estimated mean ratio
[14] = ponatinib alone, 2 of 23 subjects
[15] = ponatinib with ketoconazole, 2 of 23 subjects

## Cc1nc(Nc2ncc(C(=O)Nc3c(C)cccc3Cl)s2)cc(N2CCN(CCO)CC2)n1 [dasatinib]
[1]
  Increase in AUC: 4.8 fold
  Increase in Cmax: 3.6 fold
  Prolongation of t1/2: 5.4 h

## COc1cc(Nc2c(C#N)cnc3cc(OCCCN4CCN(C)CC4)c(OC)cc23)c(Cl)cc1Cl [bosutinib]
[2]
  Decrease in apparent clearance: 9 fold
  Increase in AUC0–t: 7.6 fold
  Increase in AUC0–∞: 8.6 fold
  Increase in Cmax: 5.2 fold
  Prolongation of t1/2: 22.8 h

## Cc1cn(-c2cc(NC(=O)c3ccc(C)c(Nc4nccc(-c5cccnc5)n4)c3)cc(C(F)(F)F)c2)cn1 [nilotinib]
[3]
  Decrease in apparent clearance: 2.5 fold
  Increase in AUC0–t: 1.8 fold
  Increase in AUC0–∞: 3 fold
  Increase in t1/2: 17.5 h

## Cc1ccc(C(=O)O)cc1C#Cc1cnc2cccnn12 [AP24600]
[4]
  Pharmacological activity: pharmacologically inactive

## Cc1ccc(C(=O)Nc2ccc(CN3CCNCC3)c(C(F)(F)F)c2)cc1C#Cc1cnc2cccnn12 [AP24567]
[4]
  Potency, less potent than ponatinib: 4 fold

## Cc1ccc(C(=O)Nc2ccc(CN3CCN(C)CC3)c(C(F)(F)F)c2)cc1C#Cc1cnc2cccnn12 [Ponatinib]
[5]; daily doses of 30 mg
  Steady-state trough plasma concentration: > 40 nM
[5]; once-daily ponatinib 45 mg
  Accumulation of AUC from first dose to steady-state: approximately 1.5 fold
  Steady-state trough concentration, geometric mean: 64 nM and 34.2 ng/mL
[5]; patients, initial dose and steady-state, doses 2 to 60 mg
  Dose proportionality of exposure (Cmax and AUC): approximately dose-proportional
[5]; patients, oral once-daily ponatinib, postdose
  Time of maximum plasma levels: approximately 4 hours
[5]; ponatinib 45 mg, patients
  Elimination half-life: approximately 22 hours
[5]; ponatinib 60 mg daily, phase 1 study
  Relation to maximum tolerated dose: exceeded the maximum tolerated dose
[6]; human, in vivo, 15 mg
  AUC(0-inf): 472 ng·h/mL
  AUC(0-t): 414 ng·h/mL
  half-life: 35.3 h
[6]; human, in vivo, 15 mg, Cmax, ponatinib 15 mg alone
  Cmax: 16.1 ng/mL
[6]; human, in vivo, po, 15 mg
  Tmax: ~6 h
[6]; ponatinib 15 mg + ketoconazole 400 mg daily
  Cmax: 23.6 (30.7, 22) ng/mL
[6]; ponatinib 15 mg alone
  Cmax: 16.1 (36.0, 22) ng/mL
[6]; [12]
  Effect of ketoconazole on t1/2 / terminal elimination: not essentially affected; also recorded: did not affect
  Effect of ketoconazole on tmax: not affected; also recorded: did not affect
  Increase in exposure, Cmax: 47%
[6]; [13]
  Increase in exposure, AUC0–t: 70%
  Increase in exposure, AUC0–∞: 78%
[6]; single oral dose of 15 mg, independent of ketoconazole coadministration
  Time at which mean plasma concentrations reached a maximum: 5 to 6 h
[7]
  Total radioactivity recovered in feces: 87%
  Total radioactivity recovered in urine: 5%
[8]
  Absolute oral bioavailability: 20%
[9]; both regimens
  Serious AEs: no serious AEs
  Subjects with at least one drug-related AE: Nine
  Vital sign, ECG, physical examination findings: No treatment-related or clinically significant vital sign, ECG, or physical examination findings
[9]; of 23 subjects, both regimens, all mild
  Subjects with at least one treatment-emergent adverse event: Eleven
[9]; ponatinib 15 mg, both alone and in combination with ketoconazole
  Tolerability: generally well tolerated
[9]; [14]
  Increased lipase (TEAE): 8.7%
  Somnolence (TEAE): 8.7%
[9]; [15]
  Headache (TEAE): 8.7%
  Somnolence (TEAE): 8.7%
[10]
  Absolute oral bioavailability: 54%
[11]
  Concentration sufficient to inhibit viability of cells expressing all BCR-ABL mutants tested and to suppress emergence of mutant clones: 40 nM
